Source: patent publication US10155041B2, “Bacterial phospholipase inhibitors as modulator of colonic bacterial flora” (Universitaetsklinikum Heidelberg, priority 2014, dated 2018)

Assays:
bacterial PLA2 = test: Determination of PLA2 activity in bacterial lysates (Bhat et al. 1993); type: biochemical
Experimental: FIG. 1 For determination of phospholipase A2 activity according to Bhat et al. (1993), 10 μl of aliquots of certain isolated bacterial strains prepared from fresh stool samples were incubated with arachidonoyl-thio phosphatidylcholine for 1 hour at 25° C. in a Ca^2+ free buffer as described herein. The reaction was terminated by 5,5-dithio-bis-2-nitrobenzoic acid. A405 was measured and specific PLA2 activity expressed as μmol LPC·mg^−1 protein·h^−1
Suspensions of the respective bacterial strain in 0.9% NaCl were prepared in Sarstedt tubes and adjusted to 1.0 (3×10^8CFU/ml) with opacimeter (Densimat® or Densicheck®). Subsequently, a BHI (brain heart infusion, purchased from Merck) was inoculated with 500 μl of the suspension and incubated at 37° C. aerob or in an airtight jar with BD Gas Pak™ for 16 hours overnight on a shaker. […]
PLA2 activity was determined as described by Bhat, et al. (1993).
For substrate preparation, 125 μg substrate arachidonyl PC (AAPC) was pipetted into Eppendorf reaction tubes (therefore, the volume to pipet from AAPC stocks in ethanol as supplied by Cayman Chemicals was calculated). […]
Finally, the absorption was read at 405 nm and 595 nm.
A unit of PLA2 is defined as a nmol of product formed by 1 ml sample in 1 h incubation. PLA2 activity was determined using the following formula: PLA2 activity(unit)=(OD405 nm−OD595 nm)×78.62×50

[1] = tested on: host mucosal epithelial cells; test: Absorption from the intestinal lumen; conditions: intestinal lumen of the host
hepatic PLA2 = conditions: Stremmel & Staffer, 2012, et al.; cited from earlier work

Substance: ursodeoxycholyl lysophosphatidylethanolamide [UDCA-LPE]
- inhibition of bacterial PLA2 (bacterial PLA2): potent inhibitors
- absorption by host mucosal epithelial cells [1]: do not enter/are not absorbed by the host mucosal epithelial cells in a considerable amount
- inhibition of bacterial phospholipase C (PLC) (phospholipase C (PLC)): shown to be inhibited
- inhibition of hepatic PLA2 (hepatic PLA2): interferes with hepatic PLA2
